Results taken from US6890889B1, “Mesotrione formulations” (priority 2000, dated 2005).

Tested on: weed
Experiment: Experiments varying water quality and application volumes
Format: in vivo
Conditions: applied at recommended rates with these adjuvant systems
Description: Mesotrione, (2-[4-methylsulfonyl-2-nitrobenzoyl]-1,3-cyclohexane dione), is a new broadleaf weed herbicide being developed for post emergence and preemergence use in corn. Adjuvants are highly preferred in order to optimise its post emergence activity. Glasshouse and field experiments have been conducted to evaluate weed and crop response to mesotrione applied post emergence with several adjuvant systems. Rates of mesotrione ranged from 50 to 140 g active ingredient (ai) per […]. Adjuvant systems tested include; • (i) no adjuvant (control), • (ii) crop oil concentrate (COC), • (iii) non-ionic surfactant (NIS), and • (iv) methylated seed oil (MSO), each with and without urea ammonium nitrate (UAN and ammonium sulphate (AMS) fertilizers.
The use of methylated seed oil with mesotrione increases the potential for crop injury.

## CS(=O)(=O)c1ccc(C(=O)C2C(=O)CCCC2=O)c([N+](=O)[O-])c1 [mesotrione, 2-[4-methylsulfonyl-2-nitrobenzoyl]-1,3-cyclohexane dione]
  impact of varying water quality and application volumes on activity: little or no impact
